The record followed here is patent US7700593B2, “Imidazo- and triazolo-pyridine compounds and methods of use thereof” (Amgen Inc., priority 2006, dated 2010).

Assay [1] deals with monocytes. Nature of the assay: Lipopolysaccharide-activated monocyte TNF production assay (LPS induced TNF release). In kind it is cell-based, human. To be noted: LPS induced TNF release from monocytes, read-out: LPS induced TNFa. As to the method: Lipopolysaccharide-Activated Monocyte TNF Production Assay
Test compounds were evaluated in vitro for the ability to inhibit the production of TNF by monocytes activated with bacterial lipopolysaccharide (LPS). Fresh residual source leukocytes (a byproduct of plateletpheresis) were obtained from a local blood bank, and peripheral blood mononuclear cells (PBMCs) were isolated by density gradient centrifugation on Ficol-Paque Plus (Pharmacia). PBMCs were suspended at 2×10^6/mL in DMEM supplemented to contain 2% FCS, 10 mM, 0.3 mg/mL […], 100 U/mL penicillin G and […] streptomycin sulfate (complete media). Cells were plated into Falcon flat bottom, 96 well culture plates (200 μL/well) and cultured overnight at 37° C. and 6% CO2. Non-adherent cells were removed by washing with 200 μl/well of fresh medium. Wells containing adherent cells (˜70% monocytes) were replenished with 100 μL of fresh medium.
Preparation of Test Compound Stock Solutions
Test compounds were dissolved in […]. Compound stock solutions were prepared to an initial concentration of […]. Stocks were diluted initially to […] in complete media. Nine two-fold serial dilutions of each compound were then prepared in complete medium.
Treatment of Cells with Test Compounds and Activation of TNF Production with Lipopolysaccharide
One hundred microliters of each test compound dilution were added to microtiter wells containing adherent monocytes and 100 μL complete medium. Monocytes were cultured with test compounds for 60 min at which time 25 μL of complete medium containing 30 ng/mL lipopolysaccharide from E. coli K532 were added to each well. Cells were cultured an additional 4 hrs. Culture supernatants were then removed and TNF presence in the supernatants was quantified using an ELISA.
Flat bottom, 96 well Corning High Binding ELISA plates were coated overnight (4° C.) with 150 μL/well of 3 μg/mL murine anti-human TNF-α MAb (R&D Systems #MAB210). Wells were then blocked for 1 h at room temperature with 200 μL/well of CaCl2-free ELISA buffer supplemented to contain 20 mg/mL BSA (standard ELISA buffer: […], 150 mM NaCl, 2 mM CaCl2, 0.15 mM thimerosal, pH 7.4). Plates were washed and replenished with 100 μL of test supernatants (diluted 1:3) or standards. Standards consisted of eleven 1.5-fold serial dilutions from a stock of 1 ng/mL recombinant human TNF (R&D Systems). Plates were incubated at room temperature for 1 h on orbital shaker (300 rpm), washed and replenished with 100 μL/well of 0.5 μg/mL goat anti-human TNF-α (R&D systems #AB-210-NA) biotinylated at a 4:1 ratio. Plates were incubated for 40 min, washed and replenished with 100 μL/well of alkaline phosphatase-conjugated streptavidin (Jackson ImmunoResearch #016-050-084) at 0.02 μg/mL. Plates were incubated 30 min, washed and replenished with 200 μL/well of 1 mg/mL of p-nitrophenyl phosphate.
Standard curve data were fit to a second order polynomial and unknown TNF-α concentrations determined from their OD by solving this equation for concentration. TNF concentrations were then plotted vs. test compound concentration using a second order polynomial. This equation was then used to calculate the concentration of test compounds causing a 50% reduction in TNF production.

In assay [2] the test system is THP1 cells. Nature of the assay: Lipopolysaccharide-activated THP1 cell TNF production assay. It counts as cell-based, human. To be noted: LPS-induced TNF-α production in THP1 cells. As to the method: Lipopolysaccharide-Activated THP1 Cell TNF Production Assay
THP1 cells are resuspended in fresh THP1 media (RPMI 1640, 10% heat-inactivated FBS, 1×PGS, 1×NEAA, plus 30 μM βME) at a concentration of 1E6/mL. One hundred microliters of cells per well are plated in a polystyrene 96-well tissue culture. One microgram per mL of bacterial LPS is prepared in THP1 media and is transferred to the wells. Test compounds are dissolved in 100% DMSO and are serially diluted 3-fold in a polypropylene 96-well microtiter plate (drug plate). HI control and LO control wells contain only DMSO. One microliter of test compound from the drug plate followed by 10 μL of LPS are transferred to the cell plate. The treated cells are induced to synthesize and secrete TNF-α at 37° C. for 3 h. Forty microliters of conditioned media are transferred to a 96-well polypropylene plate containing 110 μL of ECL buffer (50 mM Tris-HCl pH 8.0, 100 mM NaCl, 0.05% Tween 20, 0.05% NaN3 and 1% FBS) supplemented with 0.44 nM MAB610 monoclonal Ab (R&D Systems), 0.34 nM ruthenylated AF210NA polyclonal Ab (R&D Systems) and 44 μg/mL sheep anti-mouse M280 Dynabeads (Dynal). After a 2 h incubation at room temperature with shaking, the reaction is read on the ECL M8 Instrument (IGEN Inc.). A low voltage is applied to the ruthenylated TNF-α immune complexes, which in the presence of TPA (the active component in Origlo), results in a cyclical redox reaction generating light at […]. The amount of secreted TNF-α in the presence of compound compared with that in the presence of DMSO vehicle alone (HI control) is calculated using the formula: % control (POC)=(cpd−average LO)/(average HI−average LO)*100. Data (consisting of POC and inhibitor concentration in μM) is fitted to a 4-parameter equation (y=A+((B−A)/(1+((x/C)^D))), where A is the minimum y (POC) value, B is the maximum y (POC), C is the x (cpd concentration) at the point of inflection and D is the slope factor) using a Levenburg-Marquardt non-linear regression algorithm.

In assay [3] the target is p38α (Homo sapiens, UniProt Q16539). Nature of the assay: p38 in-vitro HTRF enzyme assay. In kind it is biochemical. To be noted: IC50 value ranges. As for the experimental part:
p38 In-Vitro HTRF Enzyme Assay
The compounds of the invention can be tested for their respective affinities for the p38 protein using a conventional p38 in-vitro enzyme activity assay. For example, a P38-alpha HTRF assay may be used to measure the protein's in-vitro phosphorylation activity, and the data analyzed using time resolved fluorimetry techniques (FRET). A p38 HTRF assay is as follows. The kinase reaction buffer for p38α, p38β, p38δ and p38γ HTRF assays consists of 50 mM Tris-pH 7.5, 5 mM MgCl2, 0.1 mg/mL BSA, 100 μM Na3VO4 and 0.5 mM DTT. The HTRF detection buffer contains 100 mM HEPES-pH 7.5, 100 mM NaCl, 0.1% BSA, 0.05% Tween-20, and 10 mM EDTA. Each compound was dissolved in 100% DMSO and serially diluted (3 fold, 10 point) in a polypropylene 96-well microtiter plate (drug plate). The final starting concentration of the compound in the p38α and p38β enzymatic assays was about 1 μM. The final starting concentration of each compound in the p38δ and p38γ enzymatic assays was about 10 μM. The p38α, p38β, p38δ and p38γ kinase reactions were carried out in a polypropylene 96-well black round bottom assay plate in total volume of 30 μL kinase reaction buffer. Appropriate concentration of purified and activated enzyme (recombinant human) was mixed with indicated concentration of ATP and 100 nM GST-ATF2-Avitag, in the presence or absence (HI control) of each compound. In the absence of enzyme, the background was measured as LO control. HI controls and LO controls contained only DMSO. The reaction was allowed to incubate for 1 hour at RT. […] After 60 minutes incubation at room temperature, the assay plate was read in a Discovery Plate Reader. The wells were excited with coherent 320 nm light and the ratio of delayed ([…] post excitation) emissions at […] (native europium fluorescence) and 665 nm (europium fluorescence transferred to allophycocyanin—an index of substrate phosphorylation) was determined (Park et al, 1999). The resulting data was analyzed by taking the proportion of substrate phosphorylated in the kinase reaction in the presence of each individual compound and comparing it with that phosphorylated in the presence of DMSO vehicle alone (HI control). The data was calculated using the formula: % control (POC)=(compound−average LO)/(average HI−average LO)*100. Data (consisting of POC and inhibitor concentration in μM) was fitted to a 4-parameter equation (y=A+((B−A)/(1+((x/C)^D))), where A is the minimum y (POC) value, B is the maximum y (POC), C is the x (compound concentration) at the point of inflection and D is the slope factor, using a Levenburg-Marquardt non-linear regression algorithm. The inhibition constant (Ki) of the inhibitor was estimated from the IC50 (compound concentration at the point of inflection C) using the Cheng-Prussof equation: Ki=IC50/(1+S/Km), where S is the ATP substrate concentration, and Km is the Michaelis constant for ATP as determined experimentally. All results were expressed as the mean±the standard error of the mean. Data acquisition and non-linear regression algorithms were performed using Activity Base v5.2 and XLfit software v4.1 respectively. Additional assay information may be obtained in Park Y W, Cummings R T, Wu L, et al. Homogeneous Proximity Tyrosine Kinase Assays Scintillation Proximity Assay versus Homogeneous Time-Resolved Fluorescence. Analytical Biochemistry. 1999; 269: 94-104.
In general terms: TR-FRET usually uses a lanthanide donor and a delayed reading to cut background.

Like-named read-outs stand apart in the source and are kept apart here.

Chain of p38α (Q16539 whole entry): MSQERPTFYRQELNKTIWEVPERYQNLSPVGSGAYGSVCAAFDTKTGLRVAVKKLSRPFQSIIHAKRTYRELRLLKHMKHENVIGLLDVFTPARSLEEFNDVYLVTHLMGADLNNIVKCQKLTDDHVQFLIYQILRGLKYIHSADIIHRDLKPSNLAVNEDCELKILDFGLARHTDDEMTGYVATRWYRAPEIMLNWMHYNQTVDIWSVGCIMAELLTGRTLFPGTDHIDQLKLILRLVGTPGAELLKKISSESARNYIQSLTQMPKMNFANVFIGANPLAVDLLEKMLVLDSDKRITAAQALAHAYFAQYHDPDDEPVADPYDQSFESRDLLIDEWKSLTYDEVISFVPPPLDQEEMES

Turning to `Cc1ccc(C(=O)NC2CC2)cc1-c1ccn2c(N(C)c3ccccc3)nnc2c1` [Example 75, N-cyclopropyl-4-methyl-3-(3-(methyl(phenyl)amino)[1,2,4]triazolo[4,3-a]pyridin-7-yl)benzamide], the IC50 in assay [1] (Homo sapiens, Monocyte) is 250 to 1000 nM; in assay [2] (Homo sapiens, THP-1), 25 to 100 nM; in assay [3] it was under 25 nM.

Take `Cc1c(F)cc(C(=O)NC2CC2)cc1-c1ccn2c(-c3ccccc3C(F)(F)F)nnc2c1` [Example 74, N-cyclopropyl-3-fluoro-4-methyl-5-(3-(2-(trifluoromethyl)phenyl)[1,2,4]triazolo[4,3-a]pyridin-7-yl)benzamide]: the IC50 in assay [1] (Homo sapiens, Monocyte) is under 25 nM; in assay [2] (Homo sapiens, THP-1) it was under 25 nM; in assay [3] it was under 25 nM.

On to `Cc1ccc(C(=O)NC(C)C)cc1-c1ccn2c(-c3ccccc3Cl)nnc2c1` [Example 43, 3-(3-(2-chlorophenyl)[1,2,4]triazolo[4,3-a]pyridin-7-yl)-4-methyl-N-(1-methylethyl)benzamide], for which the IC50 in assay [1] (Homo sapiens, Monocyte) fell in the range of 250 to 1000 nM; in assay [2] (Homo sapiens, THP-1), 100 to 250 nM; in assay [3], 25 to 100 nM.

With `Cc1ccc(C(=O)NC2CC2)cc1-c1ccn2c(-c3cccc(F)c3Cl)nnc2c1` [Example 39, 3-(3-(2-chloro-3-fluorophenyl)[1,2,4]triazolo[4,3-a]pyridin-7-yl)-N-cyclopropyl-4-methylbenzamide], the IC50 was 100 to 250 nM in assay [1] (Homo sapiens, Monocyte); 25 to 100 nM in assay [2] (Homo sapiens, THP-1); under 25 nM in assay [3].

Consider `Cc1ccc(C(=O)NC2CC2)cc1-c1ccn2c(-c3ccccc3F)nnc2c1` [Example 2, N-cyclopropyl-3-(3-(2-fluorophenyl)[1,2,4]triazolo[4,3-a]pyridin-7-yl)-4-methylbenzamide], for which the IC50 in assay [1] (Homo sapiens, Monocyte) is 25 to 100 nM; in assay [2] (Homo sapiens, THP-1), 25 to 100 nM; in assay [3] it was under 25 nM.

Take `Cc1cccc(F)c1-c1nnc2cc(-c3cc(C(=O)NC4CC4)cc(F)c3C)ccn12` [Example 83, N-cyclopropyl-3-fluoro-5-(3-(2-fluoro-6-methylphenyl)[1,2,4]triazolo[4,3-a]pyridin-7-yl)-4-methylbenzamide]: the IC50 in assay [1] (Homo sapiens, Monocyte) is under 25 nM; in assay [2] (Homo sapiens, THP-1) it was under 25 nM; in assay [3] it was under 25 nM.

As to `Cc1ccc(C(=O)NC2CC2)cc1-c1ccn2c(CC(C)(C)C)nnc2c1` [Example 25, N-cyclopropyl-3-(3-(2,2-dimethylpropyl)[1,2,4]triazolo[4,3-a]pyridin-7-yl)-4-methylbenzamide], the IC50 in assay [1] (Homo sapiens, Monocyte) is 25 to 100 nM; in assay [2] (Homo sapiens, THP-1) it was 25 to 100 nM; in assay [3] it was under 25 nM.

For the compound `Cc1ccc(C(=O)NC2CC2)cc1-c1ccn2c(-c3cccnc3)nnc2c1` [Example 29, N-cyclopropyl-4-methyl-3-(3-(3-pyridinyl)[1,2,4]triazolo[4,3-a]pyridin-7-yl)benzamide], the IC50 in assay [1] (Homo sapiens, Monocyte) is 100 to 250 nM; in assay [2] (Homo sapiens, THP-1), 100 to 250 nM; in assay [3], 100 to 250 nM.

In the case of `Cc1ccc(C(=O)Nc2ccnn2C)cc1-c1ccn2c(-c3sccc3C)nnc2c1` [Example 54, 4-methyl-N-(1-methyl-1H-pyrazol-5-yl)-3-(3-(3-methyl-2-thienyl)[1,2,4]triazolo[4,3-a]pyridin-7-yl)benzamide], the IC50 in assay [1] (Homo sapiens, Monocyte) is 25 to 100 nM; in assay [2] (Homo sapiens, THP-1), under 25 nM; in assay [3] it was under 25 nM.

For the compound `Cc1ccc(C(=O)NC2CC2)cc1-c1ccn2c(C34CC5CC(CC(C5)C3)C4)nnc2c1` [Example 98, N-cyclopropyl-4-methyl-3-(3-((3s,5s,7s)-tricyclo[3.3.1.1~3,7~]dec-1-yl)[1,2,4]triazolo[4,3-a]pyridin-7-yl)benzamide], the IC50 in assay [1] is 100 to 250 nM; in assay [2] (read-out: THP-1 cell assay) it was 25 to 100 nM; in assay [3], under 25 nM.

In the case of `Cc1ccc(C(=O)Nc2ccnn2C)cc1-c1cc2nnc(-c3ccccc3Cl)n2cc1C` [Example 36, 3-(3-(2-chlorophenyl)-6-methyl[1,2,4]triazolo[4,3-a]pyridin-7-yl)-4-methyl-N-(1-methyl-1H-pyrazol-5-yl)benzamide], the IC50 in assay [1] (Homo sapiens, Monocyte) was 25 to 100 nM; in assay [2] (Homo sapiens, THP-1) it was under 25 nM; in assay [3], under 25 nM.
